Data taken from patent US8987312B2, “Alpha-keto heterocycles as FAAH inhibitors” (The Scripps Research Institute, priority 2008, dated 2015).
pIC50, pKi: −log10 of the molar value. Read-outs that look alike come from different tables or passages of the source.

Experiments:
Format in all cases: biochemical
[1] = biological target: T1, purified recombinant rat FAAH (Rattus norvegicus, UniProt P97612); assay: FAAH inhibition enzyme assay (14C-oleamide hydrolysis, Dixon plot), rat enzyme
T1 construct: The truncated rat FAAH (rFAAH) was expressed in E. coli and purified as described; made in house; host or cells: Escherichia coli
T1 sequence (P97612 30-579 limits assumed): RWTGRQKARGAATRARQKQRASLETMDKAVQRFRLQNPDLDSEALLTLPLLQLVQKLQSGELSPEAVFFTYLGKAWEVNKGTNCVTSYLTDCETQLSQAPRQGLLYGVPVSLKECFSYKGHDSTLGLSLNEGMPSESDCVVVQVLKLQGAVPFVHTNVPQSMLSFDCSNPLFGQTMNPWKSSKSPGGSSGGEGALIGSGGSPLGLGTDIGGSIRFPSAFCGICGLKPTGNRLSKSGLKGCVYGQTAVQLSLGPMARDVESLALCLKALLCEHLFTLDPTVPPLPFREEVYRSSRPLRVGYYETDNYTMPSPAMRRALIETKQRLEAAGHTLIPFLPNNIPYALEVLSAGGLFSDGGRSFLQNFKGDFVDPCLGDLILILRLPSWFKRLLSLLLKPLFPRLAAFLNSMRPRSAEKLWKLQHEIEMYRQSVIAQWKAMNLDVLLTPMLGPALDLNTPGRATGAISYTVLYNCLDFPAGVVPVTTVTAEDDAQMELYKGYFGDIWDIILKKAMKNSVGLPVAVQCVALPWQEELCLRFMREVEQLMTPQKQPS
Description: (§1) The purified recombinant rFAAH was used in the inhibition assays unless otherwise indicated.
(§2) The ^14C-labeled oleamide (substrate) and oleic acid (product) were extracted with EtOAc and analyzed by TLC.

[2] = biological target: T2, FAAH (Mus musculus, UniProt O08914); assay: Activity based protein profiling (proteome-wide selectivity screening, FP-Rh), FAAH; conditions: Table 4
T2 construct: with FP-Rh in brain and heart membrane proteome; from tissue; host or cells: brain and heart membrane proteome
T2 sequence (O08914 1-579): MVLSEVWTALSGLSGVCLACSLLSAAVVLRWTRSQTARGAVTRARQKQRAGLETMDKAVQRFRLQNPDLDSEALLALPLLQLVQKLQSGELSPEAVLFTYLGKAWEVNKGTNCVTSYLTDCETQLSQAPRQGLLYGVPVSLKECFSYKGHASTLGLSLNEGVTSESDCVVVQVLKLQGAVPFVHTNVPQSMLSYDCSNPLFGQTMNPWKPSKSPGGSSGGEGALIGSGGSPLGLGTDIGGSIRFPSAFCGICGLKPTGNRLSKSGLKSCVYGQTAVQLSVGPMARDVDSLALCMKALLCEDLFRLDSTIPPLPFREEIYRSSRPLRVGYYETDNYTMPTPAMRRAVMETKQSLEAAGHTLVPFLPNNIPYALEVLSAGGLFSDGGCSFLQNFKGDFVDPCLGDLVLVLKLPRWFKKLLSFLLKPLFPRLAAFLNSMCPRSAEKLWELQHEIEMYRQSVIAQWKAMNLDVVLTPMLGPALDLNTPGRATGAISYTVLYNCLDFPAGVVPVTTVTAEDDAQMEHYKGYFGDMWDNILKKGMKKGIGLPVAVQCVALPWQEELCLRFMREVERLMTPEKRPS
Description: (§3) Enzyme targets such as FAAH, KIAA1363, and TGH are labeled at the left margin.

[3] = biological target: T3, KIAA1363 (Mus musculus, UniProt Q8BLF1); assay: Activity based protein profiling (proteome-wide selectivity screening, FP-Rh), KIAA1363; conditions: Table 4; for pIC50: activity based protein profiling; for KIAA1363 selectivity (value in parentheses): ratio KIAA1363 IC50 / FAAH IC50 (fold selectivity for FAAH)
T3 construct: with FP-Rh in brain and heart membrane proteome; from tissue; host or cells: brain and heart membrane proteome
T3 sequence (Q8BLF1 1-408): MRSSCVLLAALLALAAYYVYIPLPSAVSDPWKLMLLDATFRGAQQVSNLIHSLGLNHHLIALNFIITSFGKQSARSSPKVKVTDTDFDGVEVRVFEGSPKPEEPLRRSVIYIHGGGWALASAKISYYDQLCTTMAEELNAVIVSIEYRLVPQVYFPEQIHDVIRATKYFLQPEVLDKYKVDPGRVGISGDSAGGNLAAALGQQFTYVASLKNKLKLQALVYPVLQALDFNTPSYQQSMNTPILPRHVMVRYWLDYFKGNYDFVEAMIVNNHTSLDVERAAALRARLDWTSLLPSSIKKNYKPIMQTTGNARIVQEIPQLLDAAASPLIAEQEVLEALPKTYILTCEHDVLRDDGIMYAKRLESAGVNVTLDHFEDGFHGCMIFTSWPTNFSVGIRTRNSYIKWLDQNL
Description: as §3

[4] = biological target: T4, triacylglycerol hydrolase (TGH) (Mus musculus, UniProt Q8VCT4); assay: Activity based protein profiling (proteome-wide selectivity screening, FP-Rh), TGH; conditions: Table 4; for pIC50: activity based protein profiling; for TGH selectivity (value in parentheses): ratio TGH IC50 / FAAH IC50 (fold selectivity for FAAH)
T4 construct: with FP-Rh in brain and heart membrane proteome; from tissue; host or cells: brain and heart membrane proteome
T4 sequence (Q8VCT4 19-565): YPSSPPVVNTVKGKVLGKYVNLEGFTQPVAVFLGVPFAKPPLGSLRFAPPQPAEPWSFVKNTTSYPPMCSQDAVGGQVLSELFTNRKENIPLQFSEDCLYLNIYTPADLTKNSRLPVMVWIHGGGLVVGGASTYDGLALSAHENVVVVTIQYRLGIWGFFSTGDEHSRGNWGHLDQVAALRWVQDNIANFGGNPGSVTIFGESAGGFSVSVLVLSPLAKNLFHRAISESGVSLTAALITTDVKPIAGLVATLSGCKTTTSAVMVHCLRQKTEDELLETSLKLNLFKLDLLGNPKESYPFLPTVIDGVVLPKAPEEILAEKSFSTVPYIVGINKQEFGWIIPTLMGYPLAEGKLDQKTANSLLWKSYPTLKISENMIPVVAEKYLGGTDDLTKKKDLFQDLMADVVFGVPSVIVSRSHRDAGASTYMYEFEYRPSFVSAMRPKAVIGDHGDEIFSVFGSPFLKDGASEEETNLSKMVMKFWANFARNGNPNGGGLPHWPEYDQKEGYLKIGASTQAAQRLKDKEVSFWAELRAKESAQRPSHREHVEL
Description: as §3

[5] = biological target: T5, recombinant human fatty acid amide hydrolase (Homo sapiens, UniProt O00519); assay: FAAH inhibition enzyme assay, human enzyme (COS-7 lysate); conditions: Table 3
T5 construct: The full-length human FAAH (hFAAH) was expressed in COS-7 cells as described; expressed in transfected cells; host or cells: COS-7
T5 sequence (O00519 1-579): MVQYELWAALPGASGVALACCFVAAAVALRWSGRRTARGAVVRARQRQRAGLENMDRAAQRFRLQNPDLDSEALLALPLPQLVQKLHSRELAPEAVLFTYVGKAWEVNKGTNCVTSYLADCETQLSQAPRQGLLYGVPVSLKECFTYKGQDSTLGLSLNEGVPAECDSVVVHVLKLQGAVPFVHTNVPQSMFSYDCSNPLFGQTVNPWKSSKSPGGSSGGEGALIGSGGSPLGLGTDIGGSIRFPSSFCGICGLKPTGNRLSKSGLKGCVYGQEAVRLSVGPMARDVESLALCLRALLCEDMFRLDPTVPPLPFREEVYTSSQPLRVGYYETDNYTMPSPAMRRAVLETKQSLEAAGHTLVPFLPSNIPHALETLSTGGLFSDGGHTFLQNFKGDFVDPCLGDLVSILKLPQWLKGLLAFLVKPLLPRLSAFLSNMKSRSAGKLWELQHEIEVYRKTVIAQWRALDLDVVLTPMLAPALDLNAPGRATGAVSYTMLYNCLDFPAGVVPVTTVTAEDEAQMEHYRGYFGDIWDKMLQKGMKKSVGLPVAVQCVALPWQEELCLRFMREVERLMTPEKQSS
Description: as §1, §2

[6] = Table 2, rat FAAH, pH 9 assay conditions, read-out: Ki

Structure (SMILES) | pKi [1, 6] | pKi ([1]; Table 4, read-out: FAAH Ki) | pIC50 [2] | pIC50 [3] | KIAA1363 selectivity (value in parentheses) [3] | pIC50 [4] | TGH selectivity (value in parentheses) [4] | Ki [5] [µM] | pKi ([1]; rat FAAH, pH 9, read-out: Ki)
O=C(CCCCCCc1ccccc1)c1ncc(-c2ccco2)o1 [7c] | 7.92 | 7.92 | 7.10 | < 4.00 | > 1250 | 6.52 | 4 | – | –
O=C(CCCCCCc1ccccc1)c1ncc(-c2cccs2)o1 [7d] | 7.26 | 7.26 | 6.10 | < 4.00 | > 125 | 6.70 | 0.25 | – | –
O=C(CCCCCCc1ccccc1)c1ncc(-c2ccccc2)o1 [7e] | – | – | 6.05 | < 4.00 | – | 6.15 | – | – | –
COC(=O)c1cccc(-c2cnc(C(=O)CCCCCCc3ccccc3)o2)n1 [7f] | – | – | 6.77 | 4.40 | – | 6.00 | – | – | –
O=C(CCCCCCc1ccccc1)c1nnco1 [8a, 1-(1,3,4-Oxadiazol-2-yl)-7-phenylheptan-1-one] | 9.00 | 9.00 | 7.80 | < 4.00 | > 6250 | 7.60 | 1.5 | – | –
COC(=O)c1cccc(-c2nnc(C(=O)CCCCCCc3ccccc3)o2)n1 [8f, Methyl 6-(5-(7-Phenylheptanoyl)-1,3,4-oxadiazol-2-yl)-picolinate] | 8.52 | 8.52 | 8.10 | < 4.00 | > 12500 | 7.40 | 5 | – | –
O=C(O)c1cccc(-c2nnc(C(=O)CCCCCCc3ccccc3)o2)n1 [8g] | – | – | – | < 4.00 | – | 4.40 | – | 0.037 | –
O=C(CCCCCCc1ccccc1)c1ncno1 [9a, 1-(1,2,4-Oxadiazol-5-yl)-7-phenylheptan-1-one] | 9.00 | 9.00 | 8.40 | 4.60 | 6250 | 9.15 | 0.18 | – | –
COC(=O)c1cccc(-c2noc(C(=O)CCCCCCc3ccccc3)n2)n1 [9f, Methyl 6-(5-(7-Phenylheptanoyl)-1,2,4-oxadiazol-3-yl)-picolinate] | 8.52 | 8.52 | 8.52 | 4.40 | 13000 | 6.82 | 50 | – | –
O=C(CCCCCCc1ccccc1)c1ncon1 [10a, 1-(1,2,4-Oxadiazol-3-yl)-7-phenylheptan-1-one] | 8.15 | 8.15 | 6.30 | < 4.00 | > 200 | 8.00 | 0.02 | – | –
COC(=O)c1nc(C(=O)CCCCCCc2ccccc2)no1 [10h, Methyl 3-(7-Phenylheptanoyl)-1,2,4-oxadiazole-5-carboxylate] | – | 8.15 | 8.00 | < 4.00 | > 10000 | 6.70 | 20 | – | > 8.00
O=C(CCCCCCc1ccccc1)c1nccs1 [11a, 7-Phenyl-1-(thiazol-2-yl)-heptan-1-one] | 6.10 | 6.10 | < 4.00 | < 4.00 | – | – | – | – | –
COC(=O)c1cccc(-c2cnc(C(=O)CCCCCCc3ccccc3)s2)n1 [11f, Methyl 6-(2-(7-Phenylheptanoyl)-thiazol-5-yl)-picolinate] | 6.30 | 6.30 | < 4.00 | < 4.00 | – | 4.40 | < 0.4 | – | –
O=C(CCCCCCc1ccccc1)c1nncs1 [12a, 7-Phenyl-1-(1,3,4-thiadiazol-2-yl)-heptan-1-one] | 8.85 | 8.85 | 6.52 | < 4.00 | > 330 | 7.00 | – | – | –
O=C(CCCCCCc1ccccc1)c1cccnn1 [13a, 7-Phenyl-1-(pyridazin-3-yl)-heptan-1-one] | 6.85 | 6.85 | 5.52 | < 4.00 | > 30 | 5.30 | 1 | – | –
COC(=O)c1cccc(-c2ccc(C(=O)CCCCCCc3ccccc3)nn2)n1 [13f, Methyl 6-(6-(7-Phenylheptanoyl)-pyridazin-3-yl)-picolinate] | 6.96 | 6.96 | 5.00 | < 4.00 | > 10 | < 4.00 | > 10 | – | –
N#Cc1cccc(-c2ccc(C(=O)CCCCCCc3ccccc3)nn2)n1 [13h, 6-(6-(7-Phenylheptanoyl)-pyridazin-3-yl)-picolinonitrile] | – | 6.41 | 4.89 | < 4.00 | > 8 | 4.92 | 1 | – | –
O=C(CCCCCCc1ccccc1)c1nnn(-c2ccccn2)n1 [15b, 7-Phenyl-1-(2-(pyridin-2-yl)-2H-tetrazol-5-yl)-heptan-1-one] | – | – | – | < 4.00 | – | 6.92 | – | 0.0055 | –
